Source: patent US9908897B2, “Spirocyclic derivatives” (CHRONOS THERAPEUTICS LIMITED, priority 2014, dated 2018)

Assays:
[1] = target: human dopamine transporter (DAT) (Homo sapiens (Human), UniProt Q01959); test: Scintillation Proximity Assay (SPA) competition binding, human DAT; conditions: recombinant hDAT-CHO membranes, [3H]WIN-35,428
Procedure, shortened: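 SPA binding on membranes from CHO cells stably expressing human DAT, with 5 nM [3H]WIN-35,428, WGA-PVT beads and 0.02% BSA in HEPES/NaCl/KCl buffer pH 7.4.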

[2] = target: human norepinephrine transporter (NET) (Homo sapiens (Human), UniProt P23975); test: Scintillation Proximity Assay (SPA) competition binding, human NET; conditions: recombinant hNET-CHO membranes, [3H]nisoxetine
[3] = target: human ERG potassium channel (hERG) (Homo sapiens (Human), UniProt Q12809); test: hERG tail current recording, Rapid ICE automated patch-clamp; format: cell-based; conditions: HEK293 cells stably transfected with hERG
Procedure: Measure of the Effect on hERG Channel by Tail Current Recording Using In Vitro Rapid ICE™
The potency of the compounds of the invention in inhibiting human ERG potassium channel (hERG) tail current is assessed in a recombinant HEK293 cell line stably transfected with hERG cDNA using Rapid ICE™ (Rapid Ion Channel Electrophysiology) assay. Rapid ICE™ is an automated patch-clamp assay utilizing the PatchXpress 7000A system (Molecular Devices Corporation) or the QPatch HTX system (Sophion Bioscience A/S).
Briefly cells are cultivated for 24 to 72 hours before recordings in minimum essential medium supplemented with 10% FBS, 1% non-essential amino acids, 1% sodium pyruvate, 2 mM L-glutamine. The day of the experiment cells are detached with TrypLE and prepared to be loaded on the instrument. For PatchXpress cells are finally resuspended in 150 μl of Extracellular Buffer whereas for QPatch cells are resuspended in 7 ml Serum-Free Media containing 25 mM Hepes and Soybean trypsin inhibitor and immediately placed in the cell storage tank of the machine. The composition of the Extracellular Buffer is (mM): NaCl 137; KCl 4; CaCl2 1.8; MgCl2 1.0; D-glucose 10; N 2 hydroxyethylpiperazine-N′-2-ethanesulfonic acid (HEPES) 10; pH 7.4 with 1 M NaOH. The composition of the pipette solution is (mM): KCl 130; MgCl2 1.0; Ethylene glycol-bis(β-aminoethyl ether)-N,N,N′,N′-tetraacetic acid (EGTA) 5; MgATP 5; HEPES 10; pH 7.2 with 1 M KOH. The voltage protocol includes the following steps: step from −80 mV to −50 mV for 200 ms, +20 mV for 4.8 s, step to −50 mV for 5 s then step to the holding potential of −80 mV. Compounds of the invention are dissolved in DMSO and diluted in Extracellular Buffer to achieve final test concentrations (0.1, 1 and 10 μM) in 0.1% DMSO. The voltage protocol is run and recorded continuously during the experiment. The vehicle, corresponding to 0.1% DMSO in Extracellular Buffer, is then applied for 3 min followed by the test substance in triplicate. The standard combined exposure time is 5 min. The average of tail current amplitude values recorded from 4 sequential voltage pulses is used to calculate for each cell the effect of the test substance by calculating the residual current (% control) compared with vehicle pre-treatment. Data are reported as % inhibition for each concentration tested and IC50 values are estimated using DataXpress or QPatch software. At least two cells are tested, more if results diverge.

[4] = target: human serotonin transporter (SERT) (Homo sapiens (Human), UniProt P31645); test: Scintillation Proximity Assay (SPA) competition binding, human SERT; conditions: recombinant hSERT-CHO membranes, [3H]citalopram
Sequence of human serotonin transporter (SERT) (P31645 whole entry): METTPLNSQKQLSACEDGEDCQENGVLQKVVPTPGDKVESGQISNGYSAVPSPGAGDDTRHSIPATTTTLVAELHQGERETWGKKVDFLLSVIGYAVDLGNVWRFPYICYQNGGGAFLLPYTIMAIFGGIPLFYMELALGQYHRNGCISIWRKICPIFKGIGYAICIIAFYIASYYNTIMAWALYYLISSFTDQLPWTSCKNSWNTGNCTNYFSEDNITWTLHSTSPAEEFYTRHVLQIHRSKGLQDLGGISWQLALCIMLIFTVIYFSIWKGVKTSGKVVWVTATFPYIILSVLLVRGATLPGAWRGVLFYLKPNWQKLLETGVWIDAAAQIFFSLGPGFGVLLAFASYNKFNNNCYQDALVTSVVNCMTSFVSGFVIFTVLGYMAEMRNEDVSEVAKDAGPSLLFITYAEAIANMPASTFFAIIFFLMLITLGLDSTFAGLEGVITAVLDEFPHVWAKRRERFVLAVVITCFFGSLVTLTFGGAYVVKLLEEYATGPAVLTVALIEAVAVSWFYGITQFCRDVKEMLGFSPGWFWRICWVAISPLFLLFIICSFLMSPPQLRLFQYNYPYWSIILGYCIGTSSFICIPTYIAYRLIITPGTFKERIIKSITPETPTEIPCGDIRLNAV

Sequence of human ERG potassium channel (hERG) (Q12809 whole entry): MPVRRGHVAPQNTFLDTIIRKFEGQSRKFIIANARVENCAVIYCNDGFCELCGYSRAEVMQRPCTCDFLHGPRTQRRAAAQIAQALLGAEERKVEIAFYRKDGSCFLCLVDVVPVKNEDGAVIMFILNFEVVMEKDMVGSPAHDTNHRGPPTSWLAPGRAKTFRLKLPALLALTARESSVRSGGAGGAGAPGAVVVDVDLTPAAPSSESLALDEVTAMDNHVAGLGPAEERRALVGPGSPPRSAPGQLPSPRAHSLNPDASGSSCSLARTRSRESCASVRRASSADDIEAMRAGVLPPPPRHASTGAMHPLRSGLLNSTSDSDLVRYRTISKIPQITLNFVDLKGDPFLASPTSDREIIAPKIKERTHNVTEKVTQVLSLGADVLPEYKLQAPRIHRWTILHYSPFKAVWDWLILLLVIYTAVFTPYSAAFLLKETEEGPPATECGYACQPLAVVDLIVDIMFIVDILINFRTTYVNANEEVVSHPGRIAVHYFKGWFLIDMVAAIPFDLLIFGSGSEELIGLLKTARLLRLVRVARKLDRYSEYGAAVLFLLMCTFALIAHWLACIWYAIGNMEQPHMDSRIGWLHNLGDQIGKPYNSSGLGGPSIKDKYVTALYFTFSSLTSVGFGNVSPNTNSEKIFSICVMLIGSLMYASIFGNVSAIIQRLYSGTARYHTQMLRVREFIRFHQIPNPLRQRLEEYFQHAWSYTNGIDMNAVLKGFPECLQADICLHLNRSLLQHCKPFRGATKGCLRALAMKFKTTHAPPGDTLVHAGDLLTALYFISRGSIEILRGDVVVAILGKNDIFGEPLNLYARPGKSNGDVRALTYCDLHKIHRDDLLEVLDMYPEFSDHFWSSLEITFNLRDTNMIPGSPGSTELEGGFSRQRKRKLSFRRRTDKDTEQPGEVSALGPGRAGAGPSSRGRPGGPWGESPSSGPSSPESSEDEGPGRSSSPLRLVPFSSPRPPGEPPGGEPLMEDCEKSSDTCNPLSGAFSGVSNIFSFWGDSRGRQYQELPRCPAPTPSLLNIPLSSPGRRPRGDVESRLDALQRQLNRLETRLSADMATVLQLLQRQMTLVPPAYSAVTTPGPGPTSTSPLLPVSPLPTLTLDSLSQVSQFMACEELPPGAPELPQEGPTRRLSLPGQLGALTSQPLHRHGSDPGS
Sequence of human dopamine transporter (DAT) (Q01959 whole entry): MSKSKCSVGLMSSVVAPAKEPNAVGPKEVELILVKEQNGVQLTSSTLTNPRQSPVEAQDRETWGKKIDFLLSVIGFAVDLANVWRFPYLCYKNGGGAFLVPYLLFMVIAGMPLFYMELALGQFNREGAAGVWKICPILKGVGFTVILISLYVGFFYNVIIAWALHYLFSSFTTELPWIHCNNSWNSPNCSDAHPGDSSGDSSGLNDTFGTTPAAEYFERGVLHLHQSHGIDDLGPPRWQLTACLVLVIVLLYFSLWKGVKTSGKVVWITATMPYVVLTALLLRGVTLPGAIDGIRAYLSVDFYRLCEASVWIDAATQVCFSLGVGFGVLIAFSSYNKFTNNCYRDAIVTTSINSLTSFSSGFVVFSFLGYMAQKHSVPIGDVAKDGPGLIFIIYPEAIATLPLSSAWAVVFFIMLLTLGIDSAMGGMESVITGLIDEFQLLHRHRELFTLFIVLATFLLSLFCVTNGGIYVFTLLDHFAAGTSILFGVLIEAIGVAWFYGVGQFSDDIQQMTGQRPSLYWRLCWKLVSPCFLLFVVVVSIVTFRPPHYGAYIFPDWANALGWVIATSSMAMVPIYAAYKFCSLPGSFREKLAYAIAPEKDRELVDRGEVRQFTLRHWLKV
Sequence of human norepinephrine transporter (NET) (P23975 whole entry): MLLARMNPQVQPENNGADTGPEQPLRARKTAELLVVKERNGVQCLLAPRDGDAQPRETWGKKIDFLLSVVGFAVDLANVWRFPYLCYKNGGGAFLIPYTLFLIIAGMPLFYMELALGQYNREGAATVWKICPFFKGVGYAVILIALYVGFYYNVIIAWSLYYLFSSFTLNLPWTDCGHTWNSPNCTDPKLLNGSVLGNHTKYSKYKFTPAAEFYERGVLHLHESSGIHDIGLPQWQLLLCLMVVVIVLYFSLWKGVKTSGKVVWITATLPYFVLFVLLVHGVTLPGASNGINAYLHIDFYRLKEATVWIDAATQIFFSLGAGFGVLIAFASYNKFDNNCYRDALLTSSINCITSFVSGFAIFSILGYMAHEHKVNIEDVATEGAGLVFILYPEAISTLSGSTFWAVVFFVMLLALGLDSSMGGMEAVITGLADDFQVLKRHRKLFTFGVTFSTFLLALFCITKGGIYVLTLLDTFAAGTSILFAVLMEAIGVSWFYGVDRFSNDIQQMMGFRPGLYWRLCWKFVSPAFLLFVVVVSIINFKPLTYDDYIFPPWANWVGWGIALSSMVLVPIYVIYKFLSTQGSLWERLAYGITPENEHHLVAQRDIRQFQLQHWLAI

SMILES | pIC50 DAT [1] | pIC50 NET [2] | pIC50 hERG [3] | pIC50 SERT [4] | IC50 [3] [µM] | IC50 [4] [µM]
Cl.Fc1ccccc1Oc1cc(C(F)(F)F)nc(N2CCC3(CC2)CNCCO3)n1 [Example 57, 9-[4-(2-fluorophenoxy)-6-(trifluoromethyl)pyrimidin-2-yl]-1-oxa-4,9-diazaspiro[5.5]undecane hydrochloride] | 7.89 | 5.94 | 5.7 | 6.18 |  | 
Cl.N#Cc1cccc(Oc2cc(C(F)(F)F)nc(N3CCC4(CC3)CNCCO4)n2)c1 [Example 59, 3-[(2-{1-oxa-4,9-diazaspiro[5.5]undecan-9-yl}-6-(trifluoromethyl)pyrimidin-4-yl)oxy]benzonitrile hydrochloride] | 8.01 | 5.67 | 7.0 | 5.15 |  | 
Cl.N#Cc1cc(Oc2cccc(F)c2)nc(N2CCC3(CC2)CNCCO3)n1 [Example 62, 6-(3-fluorophenoxy)-2-{1-oxa-4,9-diazaspiro[5.5]undecan-9-yl}pyrimidine-4-carbonitrile hydrochloride] | 8.01 | 6.36 | 6.5 | 5.83 |  | 
Cl.Fc1cccc(Oc2cc(C3CC3)nc(N3CCC4(CC3)CNCCO4)n2)c1 [Example 65, 9-[4-cyclopropyl-6-(3-fluorophenoxy)pyrimidin-2-yl]-1-oxa-4,9-diazaspiro[5.5]undecane hydrochloride] | 8.79 | 7.08 | 5.7 | 5.44 |  | 
COc1cc(Oc2cccc(F)c2)nc(N2CCC3(CC2)CNCCO3)n1.Cl [Example 66, 9-[4-(3-fluorophenoxy)-6-methoxypyrimidin-2-yl]-1-oxa-4,9 diazaspiro[5.5]undecane hydrochloride] | 8.29 | 6.52 | 5.7 | 5.27 |  | 
O=C1COC2(CCN(c3nc(Oc4cccc(F)c4)cc(C(F)(F)F)n3)CC2)CN1 [Example 68, 9-[4-(3-fluorophenoxy)-6-(trifluoromethyl)pyrimidin-2-yl]-1-oxa-4,9-diazaspiro[5.5]undecan-3-one] | 7.28 | 5.39 |  | 4.45 | > 10 | 
Cl.Fc1cccc(Oc2cc(C(F)(F)F)nc(N3CCC4(CC3)CNCC(F)(F)O4)n2)c1 [Example 70, 2,2-difluoro-9-[4-(3-fluorophenoxy)-6-(trifluoromethyl)pyrimidin-2-yl]-1-oxa-4,9-diazaspiro[5.5]undecane hydrochloride] | 6.65 | 5.17 | 5.0 |  |  | > 100
O=S1(=O)CCNCC12CCN(c1cc(F)c(F)cc1Oc1cccc(F)c1)CC2 [Example 71, 9-[4,5-difluoro-2-(3-fluorophenoxy)phenyl]-1λ^6-thia-4,9-diazaspiro[5.5]undecane-1,1-dione] | 6.22 | 4.82 | 5.1 | 4.55 |  | 
O=S1(=O)CCNCC12CCN(c1nc(Oc3cccc(F)c3)cc(C(F)(F)F)n1)CC2 [Example 72, 9-[4-(3-fluorophenoxy)-6-(trifluoromethyl)pyrimidin-2-yl]-1λ^6-thia-4,9-diazaspiro[5.5]undecane-1,1-dione] | 7.08 | 4.92 | 5.5 |  |  | > 100
Fc1cccc(Oc2cc(F)c(F)cc2N2CCC3(CCCNC3)CC2)c1 [Example 79, 9-[4,5-difluoro-2-(3-fluorophenoxy)phenyl]-2,9-diazaspiro[5.5]undecane] | 7.86 | 6.31 | 6.1 | 6.49 |  | 
Fc1cccc(Oc2cc(F)c(F)cc2N2CCC3(CCNCC3)CC2)c1 [Example 82, 3-[4,5-difluoro-2-(3-fluorophenoxy)phenyl]-3,9-diazaspiro[5.5]undecane] | 8.14 | 6.10 | 6.0 | 8.00 |  | 
Fc1cccc(Oc2cc(F)c(F)cc2N2CCC3(CNCCO3)C2)c1 (centres unmarked) [Example 83, 2-[4,5-difluoro-2-(3-fluorophenoxy)phenyl]-6-oxa-2,9-diazaspiro[4.5]decane] | 7.24 | 6.76 | 6.2 | 6.40 |  | 
Fc1cccc(Oc2cc(F)c(F)cc2N2CCC3(CCCNC3)C2)c1 (centres unmarked) [Example 84, 2-[4,5-difluoro-2-(3-fluorophenoxy)phenyl]-2,7-diazaspiro[4.5]decane] | 7.94 | 6.76 | 6.6 | 6.33 |  | 
Fc1cccc(Oc2cc(C(F)(F)F)nc(N3CCC4(CNCCC45OCCO5)C3)n2)c1 (centres unmarked) [Example 87, 8-[4-(3-fluorophenoxy)-6-(trifluoromethyl)pyrimidin-2-yl]-1,4-dioxa-8,12-diazadispiro[4.0.4^6.4^5]tetradecane] | 8.67 | 6.82 | 6.0 | 5.43 |  | 
O=C1NCC2(CCN(c3nc(Oc4cccc(F)c4)cc(C(F)(F)F)n3)CC2)O1 [Example 89, 8-[4-(3-fluorophenoxy)-6-(trifluoromethyl)pyrimidin-2-yl]-1-oxa-3,8-diazaspiro[4.5]decan-2-one] | 7.73 | 5.66 | 5.7 | 4.89 |  | 
Fc1cccc(Oc2cc(F)c(F)cc2N2CCC3(CCNCC3)C2)c1 [Example 90, 2-[4,5-difluoro-2-(3-fluorophenoxy)phenyl]-2,8-diazaspiro[4.5]decane] | 8.36 | 6.85 | 6.1 | 6.31 |  | 
Fc1cccc(Oc2cc(F)c(F)cc2N2CCC3(CCNC3)CC2)c1 [Example 91, 8-[4,5-difluoro-2-(3-fluorophenoxy)phenyl]-2,8-diazaspiro[4.5]decane] | 8.01 | 6.26 | 5.9 | 7.29 |  | 
Fc1cccc(Oc2cc(F)cc(N3CCC4(CCNC4)CC3)c2)c1 [Example 92, 8-[3-fluoro-5-(3-fluorophenoxy)phenyl]-2,8-diazaspiro[4.5]decane] | 8.84 | 7.33 | 6.2 | 7.37 |  | 
Fc1cccc(Oc2cc(F)c(F)cc2N2CCC3(CCNCC34OCCO4)C2)c1 (centres unmarked) [Example 93, 8-[4,5-difluoro-2-(3-fluorophenoxy)phenyl]-1,4-dioxa-8,13-diazadispiro[4.0.4^6.4^5]tetradecane] | 8.44 | 6.64 | 6.0 | 6.90 |  | 
Cl.Fc1cccc(Oc2cc(C(F)(F)F)nc(N3CCC4(CCNCC45OCCO5)C3)n2)c1 (centres unmarked) [Example 95, 8-[4-(3-fluorophenoxy)-6-(trifluoromethyl)pyrimidin-2-yl]-1,4-dioxa-8,13-diazadispiro[4.0.4^6.4^5]tetradecane hydrochloride] | 8.16 | 6.09 | 5.6 | 6.29 |  | 
